# Publication PMC4450297, “Screening Active Compounds from Garcinia Species Native to China Reveals Novel Compounds Targeting the STAT/JAK Signaling Pathway” (BioMed Research International, 2015)
# Key:
# Experiment in all cases: Cell panel screen (CellTiter-Glo)
# Type in all cases: cell-based, human
# A498 = A498 (listed under Lung), 20 micromolar, 72 hrs
# How it was run: (§1)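 Growth inhibition (%) was determined from luminescence proportional to cellular ATP after cells had been incubated with compound (20 μM final) for 72 h at 37°C, with matched DMSO controls and cell-free wells defining the range.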
# CW-2 = CW-2 (Colon), 20 micromolar, 72 hrs
# How it was run: as §1
# Colo 205 = settings: Colo 205, 20 micromolar, 72 hrs
# How it was run: as §1
# NCI-H1694 = NCI-H1694 (Lung), 20 micromolar, 72 hrs
# How it was run: as §1
# RL95 = RL95 (Uterus), 20 micromolar, 72 hrs
# How it was run: as §1
# HCC1395 = HCC1395 (Breast), 20 micromolar, 72 hrs
# How it was run: as §1
# HT-1197 = HT-1197 (Urinary bladder), 20 micromolar, 72 hrs
# How it was run: as §1
# ZR-75-30 = ZR-75-30 (Breast), 20 micromolar, 72 hrs
# How it was run: as §1
# HEC-1-A = HEC-1-A (Uterus), 20 micromolar, 72 hrs
# How it was run: as §1
# Bel-7402 = Bel-7402 (Liver), 20 micromolar, 72 hrs
# How it was run: as §1
# HCC1599 = HCC1599 (Breast), 20 micromolar, 72 hrs
# How it was run: as §1
# A704 = A704 (Kidney), 20 micromolar, 72 hrs
# How it was run: as §1
# BT-474 = BT-474 (Breast), 20 micromolar, 72 hrs
# How it was run: as §1
# J82 = J82 (Urinary bladder), 20 micromolar, 72 hrs
# How it was run: as §1
# CCF-STTG1 = CCF-STTG1 (Brain), 20 micromolar, 72 hrs
# How it was run: as §1
# HGC-27 = HGC-27 (Stomach), 20 micromolar, 72 hrs
# How it was run: as §1
# M059J = M059J (Brain), 20 micromolar, 72 hrs
# How it was run: as §1
# MSTO-211-H = MSTO-211-H (Lung), 20 micromolar, 72 hrs
# How it was run: as §1
# NCI-H1770 = NCI-H1770 (Lung), 20 micromolar, 72 hrs
# How it was run: as §1
# NCI-H524 = NCI-H524 (Lung), 20 micromolar, 72 hrs
# How it was run: as §1
# SW13 = SW13 (Adrenal gland), 20 micromolar, 72 hrs
# How it was run: as §1
# NCI-H28 = NCI-H28 (Lung), 20 micromolar, 72 hrs
# How it was run: as §1
# NCI-H2405 = NCI-H2405 (Lung), 20 micromolar, 72 hrs
# How it was run: as §1
# NCI-H1623 = NCI-H1623 (Lung), 20 micromolar, 72 hrs
# How it was run: as §1
# ChaGo-K-1 = ChaGo-K-1 (Lung), 20 micromolar, 72 hrs
# How it was run: as §1
# HPAF-II = HPAF-II (Pancreas), 20 micromolar, 72 hrs
# How it was run: as §1
# C8166 = C8166 (Leukemia), 20 micromolar, 72 hrs
# How it was run: as §1
# TCCSUP = TCCSUP (Urinary bladder), 20 micromolar, 72 hrs
# How it was run: as §1
# NCI-H2347 = NCI-H2347 (Lung), 20 micromolar, 72 hrs
# How it was run: as §1
# HCC1937 = HCC1937 (Breast), 20 micromolar, 72 hrs
# How it was run: as §1
# BT-549 = BT-549 (Breast), 20 micromolar, 72 hrs
# How it was run: as §1
# T47D = T47D (Breast), 20 micromolar, 72 hrs
# How it was run: as §1
# Panc 03.27 = Panc 03.27 (Pancreas), 20 micromolar, 72 hrs
# How it was run: as §1
# T98G = T98G (Brain), 20 micromolar, 72 hrs
# How it was run: as §1
# HCC1569 = HCC1569 (Breast), 20 micromolar, 72 hrs
# How it was run: as §1
# C3A = C3A (Liver), 20 micromolar, 72 hrs
# How it was run: as §1
# [1] = Homo sapiens, read-out: Percent Inhibition
smiles,measurement,setting,value
"CC(C)=CCc1c(O)cc2oc3c(CC=C(C)C)c(O)c(O)c(CC=C(C)C)c3c(=O)c2c1O [bn-1, Garcinone E]",inhibition at 20 µM,A498; [1],98%
same,inhibition at 20 µM,CW-2; [1],99%
same,inhibition at 20 µM,Colo 205; [1],98%
same,inhibition at 20 µM,NCI-H1694; [1],100%
same,inhibition at 20 µM,RL95; [1],99%
same,inhibition at 20 µM,HCC1395; [1],100%
same,inhibition at 20 µM,"HT-1197; Homo sapiens, HT1197, read-out: Percent Inhibition",97%
same,inhibition at 20 µM,ZR-75-30; [1],99%
same,inhibition at 20 µM,HEC-1-A; [1],87%
same,inhibition at 20 µM,Bel-7402; [1],98%
same,inhibition at 20 µM,HCC1599; [1],98%
same,inhibition at 20 µM,A704; [1],98%
same,inhibition at 20 µM,BT-474; [1],87%
same,inhibition at 20 µM,J82; [1],98%
same,inhibition at 20 µM,CCF-STTG1; [1],89%
same,inhibition at 20 µM,HGC-27; [1],99%
same,inhibition at 20 µM,M059J; [1],95%
same,inhibition at 20 µM,MSTO-211-H; [1],98%
same,inhibition at 20 µM,NCI-H1770; [1],93%
same,inhibition at 20 µM,NCI-H524; [1],100%
same,inhibition at 20 µM,SW13; [1],97%
same,inhibition at 20 µM,NCI-H28; [1],95%
same,inhibition at 20 µM,NCI-H2405; [1],93%
same,inhibition at 20 µM,NCI-H1623; [1],91%
same,inhibition at 20 µM,ChaGo-K-1; [1],99%
same,inhibition at 20 µM,HPAF-II; [1],90%
same,inhibition at 20 µM,C8166; [1],99%
same,inhibition at 20 µM,"TCCSUP; Homo sapiens, TCC-SUP, read-out: Percent Inhibition",97%
same,inhibition at 20 µM,NCI-H2347; [1],79%
same,inhibition at 20 µM,HCC1937; [1],97%
same,inhibition at 20 µM,BT-549; [1],98%
same,inhibition at 20 µM,T47D; [1],82%
same,inhibition at 20 µM,"Panc 03.27; Homo sapiens, PANC-03-27, read-out: Percent Inhibition",90%
same,inhibition at 20 µM,T98G; [1],100%
same,inhibition at 20 µM,HCC1569; [1],96%
same,inhibition at 20 µM,C3A; [1],90%
CC(C)=CCCC1(C)C=Cc2c(O)c3c(c(CC=C(C)C)c2O1)OC12C(=CC4CC1C(C)(C)OC2(CC=C(C)C(=O)O)C4=O)C3=O (mixture of isomers) [GB14],Percent Inhibition,A498,97%
same,Percent Inhibition,CW-2,98%
same,Percent Inhibition,Colo 205,98%
same,Percent Inhibition,NCI-H1694,98%
same,Percent Inhibition,RL95,97%
same,Percent Inhibition,HCC1395,98%
same,Percent Inhibition,HT-1197,98%
same,Percent Inhibition,ZR-75-30,99%
same,Percent Inhibition,HEC-1-A,97%
same,Percent Inhibition,Bel-7402,97%
same,Percent Inhibition,HCC1599,98%
same,Percent Inhibition,A704,97%
same,Percent Inhibition,BT-474,98%
same,Percent Inhibition,J82,97%
same,Percent Inhibition,CCF-STTG1,98%
same,Percent Inhibition,HGC-27,98%
same,Percent Inhibition,M059J,97%
same,Percent Inhibition,MSTO-211-H,97%
same,Percent Inhibition,NCI-H1770,97%
same,Percent Inhibition,NCI-H524,98%
same,Percent Inhibition,SW13,97%
same,Percent Inhibition,NCI-H28,97%
same,Percent Inhibition,NCI-H2405,97%
same,Percent Inhibition,NCI-H1623,98%
same,Percent Inhibition,ChaGo-K-1,98%
same,Percent Inhibition,HPAF-II,97%
same,Percent Inhibition,C8166,97%
same,Percent Inhibition,TCCSUP,98%
same,Percent Inhibition,NCI-H2347,97%
same,Percent Inhibition,HCC1937,98%
same,Percent Inhibition,BT-549,98%
same,Percent Inhibition,T47D,98%
same,Percent Inhibition,Panc 03.27,97%
same,Percent Inhibition,T98G,98%
same,Percent Inhibition,HCC1569,98%
same,Percent Inhibition,C3A,98%
O=c1c2cc(O)ccc2oc2cccc(O)c12 [Gof3],Percent Inhibition,A498,39%
same,Percent Inhibition,CW-2,39%
same,Percent Inhibition,Colo 205,22%
same,Percent Inhibition,NCI-H1694,29%
same,Percent Inhibition,RL95,42%
same,Percent Inhibition,HCC1395,35%
same,Percent Inhibition,HT-1197,28%
same,Percent Inhibition,ZR-75-30,41%
same,Percent Inhibition,HEC-1-A,19%
same,Percent Inhibition,Bel-7402,45%
same,Percent Inhibition,HCC1599,36%
same,Percent Inhibition,A704,23%
same,Percent Inhibition,BT-474,7%
same,Percent Inhibition,J82,20%
same,Percent Inhibition,CCF-STTG1,31%
same,Percent Inhibition,HGC-27,34%
same,Percent Inhibition,M059J,53%
same,Percent Inhibition,MSTO-211-H,36%
same,Percent Inhibition,NCI-H1770,17%
same,Percent Inhibition,NCI-H524,18%
same,Percent Inhibition,SW13,33%
same,Percent Inhibition,NCI-H28,27%
same,Percent Inhibition,NCI-H2405,-13%
same,Percent Inhibition,NCI-H1623,-7%
same,Percent Inhibition,ChaGo-K-1,12%
same,Percent Inhibition,HPAF-II,15%
same,Percent Inhibition,C8166,29%
same,Percent Inhibition,TCCSUP,32%
same,Percent Inhibition,NCI-H2347,20%
same,Percent Inhibition,HCC1937,8%
same,Percent Inhibition,BT-549,16%
same,Percent Inhibition,T47D,10%
same,Percent Inhibition,Panc 03.27,7%
same,Percent Inhibition,T98G,27%
same,Percent Inhibition,HCC1569,29%
same,Percent Inhibition,C3A,7%
